In patent US20210122730A1, “GLUCOCORTICOID RECEPTOR MODULATORS” (ORIC Pharmaceuticals, Inc., priority 2017, published 2021):

Columns and labels:
CYP2C8 = target: T1, CYP2C8 (Homo sapiens, UniProt P10632); assay: CYP Inhibition Assay (CYP2C8, human liver microsomes, paclitaxel substrate); assay type: in vitro ADME; conditions: pH 7.4; pooled human liver microsomes 0.1 mg/mL, probe substrate paclitaxel
T1 construct: Pooled human microsomes were obtained from Sekisui XenoTech, KS; tissue Sekisui XenoTech, KS; host or cells: pooled human liver microsomes
T1 sequence (P10632 1-490): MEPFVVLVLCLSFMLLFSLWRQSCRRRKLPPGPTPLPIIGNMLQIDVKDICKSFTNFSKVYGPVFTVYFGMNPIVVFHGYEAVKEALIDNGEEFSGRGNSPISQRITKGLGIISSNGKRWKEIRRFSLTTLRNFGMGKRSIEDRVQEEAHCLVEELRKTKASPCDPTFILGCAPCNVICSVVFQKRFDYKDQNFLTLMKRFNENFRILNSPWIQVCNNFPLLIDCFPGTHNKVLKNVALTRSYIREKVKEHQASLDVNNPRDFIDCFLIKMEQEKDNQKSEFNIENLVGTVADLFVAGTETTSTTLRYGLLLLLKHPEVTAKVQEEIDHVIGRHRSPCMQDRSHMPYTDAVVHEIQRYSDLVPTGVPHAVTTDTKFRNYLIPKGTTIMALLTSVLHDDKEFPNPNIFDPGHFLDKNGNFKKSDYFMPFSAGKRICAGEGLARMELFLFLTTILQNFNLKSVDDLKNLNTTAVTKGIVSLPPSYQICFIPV
How it was run: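 CYP2C8 activity read as 6α-hydroxypaclitaxel formation by LC-MS/MS, with % inhibition versus vehicle control. Reactions ran 5 min at 37° C, pH 7.4 phosphate buffer, 0.1 mg/mL pooled human liver microsomes, 1 mM NADPH, duplicate wells.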

GR = target: T2, GR (Homo sapiens, UniProt P04150); assay: In Vitro GR Luciferase Reporter Assay (antagonist mode, CHO-K1-GR-MMTV-Luc reporter cells); assay type: cell-based
T2 construct: expressed in transfected cells; host or cells: CHO-K1
T2 sequence (P04150 1-777): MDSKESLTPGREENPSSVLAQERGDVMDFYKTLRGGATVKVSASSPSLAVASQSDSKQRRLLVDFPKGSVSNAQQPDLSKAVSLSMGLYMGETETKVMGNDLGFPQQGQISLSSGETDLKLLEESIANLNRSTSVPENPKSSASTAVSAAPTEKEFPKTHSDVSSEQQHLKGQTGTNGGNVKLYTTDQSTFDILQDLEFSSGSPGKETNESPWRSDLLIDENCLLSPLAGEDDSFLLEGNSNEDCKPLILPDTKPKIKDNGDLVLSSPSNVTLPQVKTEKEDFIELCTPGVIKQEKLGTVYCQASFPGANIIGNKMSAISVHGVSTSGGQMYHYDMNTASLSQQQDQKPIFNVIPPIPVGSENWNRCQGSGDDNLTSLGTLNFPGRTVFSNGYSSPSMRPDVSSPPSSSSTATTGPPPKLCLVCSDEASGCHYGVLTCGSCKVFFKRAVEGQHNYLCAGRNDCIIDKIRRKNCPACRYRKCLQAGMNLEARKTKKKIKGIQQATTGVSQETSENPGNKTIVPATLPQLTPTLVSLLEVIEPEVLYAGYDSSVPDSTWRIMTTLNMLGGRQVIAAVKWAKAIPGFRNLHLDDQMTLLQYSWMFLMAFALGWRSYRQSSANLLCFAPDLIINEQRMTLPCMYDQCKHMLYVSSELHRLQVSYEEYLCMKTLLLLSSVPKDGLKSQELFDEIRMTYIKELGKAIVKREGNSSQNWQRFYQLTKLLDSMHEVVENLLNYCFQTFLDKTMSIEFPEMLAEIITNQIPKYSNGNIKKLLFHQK
How it was run: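 Antagonist mode: compounds (8 serial 1:5 dilutions) added to GR-MMTV-luciferase CHO-K1 reporter cells co-exposed to 10 nM dexamethasone final, in phenol red-free DMEM plus 10% CSS. After roughly 18-24 h at 37° C, OneGlo luminescence read and IC50 calculated.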

[1] = antagonist mode, 10 nM Dexamethasone

SMILES | inhibition at 5 min (CYP2C8) | IC50 (GR; [1]) | IC50 (GR; antagonist assay with 10 nM Dexamethasone, 18-24 hours)
Cn1ncc(S(=O)(=O)N(C2CC2)[C@H]2CCC3=Cc4c(cnn4-c4ccc(F)cc4)C[C@]3(C(=O)c3ncc(C(F)(F)F)s3)C2)n1 [Example 183, N-cyclopropyl-N-((4aS,6S)-1-(4-fluorophenyl)-4a-(5 (trifluoromethyl)thiazole-2-carbonyl)-4,4a,5,6,7,8-hexahydro-1H-benzo[f]indazol-6-yl)-2-methyl-2H-1,2,3-triazole-4-sulfonamide] | 25 to 50% | ≤ 100 nM | 
CC(C)n1ccc(S(=O)(=O)[C@H]2CCC3=Cc4c(cnn4-c4ccc(F)cc4)C[C@]3(C(=O)c3ccc(C(F)(F)F)cn3)C2)n1 [Example 310, ((4aS,6S)-1-(4-fluorophenyl)-6-((1-isopropyl-1H-pyrazol-3-yl)sulfonyl)-1,4,5,6,7,8-hexahydro-4aH-benzo[f]indazol-4a-yl)(5-(trifluoromethyl)pyridin-2-yl)methanone] | 25 to 50% | ≤ 100 nM | 
CN([C@H]1CCC2=Cc3c(cnn3-c3ccc(F)cc3)C[C@]2(C(=O)c2cc(C(F)(F)F)ccn2)C1)S(=O)(=O)c1ccc(Cl)cc1 [Example 99, 4-chloro-N-((4aS,6S)-1-(4-fluorophenyl)-4a-(4-(trifluoromethyl)picolinoyl)-4,4a,5,6,7,8-hexahydro-1H-benzo[f]indazol-6-yl)-N-methylbenzenesulfonamide] | 25 to 50% |  | ≤ 100 nM
O=C(c1cc(C(F)(F)F)ccn1)[C@]12Cc3cnn(-c4ccc(F)cc4)c3C=C1CC[C@H](N(C1CC1)S(=O)(=O)c1ccc(Cl)nc1)C2 [Example 223, 6-chloro-N-cyclopropyl-N-((4aS,6S)-1-(4-fluorophenyl)-4a-(4-(trifluoromethyl)picolinoyl)-4,4a,5,6,7,8-hexahydro-1H-benzo[f]indazol-6-yl)pyridine-3-sulfonamide] | 25 to 50% | ≤ 100 nM | 
Cn1ccc(S(=O)(=O)N(C2COC2)[C@H]2CCC3=Cc4c(cnn4-c4ccc(F)cc4)C[C@]3(C(=O)c3cc(C(F)(F)F)ccn3)C2)n1 [Example 198, N-((4aS,6S)-1-(4-fluorophenyl)-4a-(4-(trifluoromethyl)picolinoyl)-4,4a,5,6,7,8-hexahydro-1H-benzo[f]indazol-6-yl)-1-methyl-N-(oxetan-3-yl)-1H-pyrazole-3-sulfonamide] | 25 to 50% | ≤ 100 nM | 

Now from value to molecule:

inhibition at 5 min (CYP2C8) | IC50 (GR; [1]) | IC50 (GR; antagonist assay with 10 nM Dexamethasone, 18-24 hours) | SMILES
25 to 50% | ≤ 100 nM |  | Cc1ncc(S(=O)(=O)N(C2CC2)[C@H]2CCC3=Cc4c(cnn4-c4ccc(F)cc4)C[C@]3(C(=O)c3cc(C(F)(F)F)ccn3)C2)n1C [Example 307, N-cyclopropyl-N-((4aS,6S)-1-(4-fluorophenyl)-4a-(4-(trifluoromethyl)picolinoyl)-4,4a,5,6,7,8-hexahydro-1H-benzo[f]indazol-6-yl)-1,2-dimethyl-1H-imidazole-5-sulfonamide]
50 to 75% | ≤ 100 nM |  | CC(C)N([C@H]1CCC2=Cc3c(cnn3-c3ccc(F)cc3)C[C@]2(C(=O)c2cc(C(F)(F)F)ccn2)C1)S(=O)(=O)c1cn(C)cn1 [Example 221, N-((4aS,6S)-1-(4-fluorophenyl)-4a-(4-(trifluoromethyl)picolinoyl)-4,4a,5,6,7,8-hexahydro-1H-benzo[f]indazol-6-yl)-N-isopropyl-1-methyl-1H-imidazole-4-sulfonamide]
50 to 75% | ≤ 100 nM |  | Cn1ccc(S(=O)(=O)N(C2CC2)[C@H]2CCC3=Cc4c(cnn4-c4ccc(F)cc4)C[C@]3(C(=O)c3ncc(C(F)(F)F)s3)C2)n1 [Example 164, N-cyclopropyl-N-((4aS,6S)-1-(4-fluorophenyl)-4a-(5 (trifluoromethyl)thiazole-2-carbonyl)-4,4a,5,6,7,8-hexahydro-1H-benzo[f]indazol-6-yl)-1-methyl-1H-pyrazole-3-sulfonamide]
